# From article PMC11769294, “(E)-1-(3-(3-Hydroxy-4-Methoxyphenyl)-1-(3,4,5-Trimethoxyphenyl)allyl)-1H-1,2,4-Triazole and Related Compounds: Their Synthesis and Biological Evaluation as Novel Antimitotic Agents Targeting Breast Cancer” (Pharmaceuticals, 2025)
# Like-named read-outs stand apart in the source and are kept apart here.
# Experiments:
# HS 578T (Breast Cancer) = experiment: NCI60 screen (SRB); format: cell-based, human; conditions: 48 h; for growth percent: HS 578T, one dose 10 µM
# T-47D (Breast Cancer) = experiment: NCI60 screen (SRB); format: cell-based, human; conditions: 48 h; for growth percent: one dose 10 µM
# [1] = tested on: NCI-H226 (Non-Small Cell Lung Cancer); experiment: NCI60 screen (SRB); format: cell-based, human; conditions: 48 h; for growth percent: one dose 10 µM
# SK-MEL-2 (Melanoma) = experiment: NCI60 screen (SRB); format: cell-based, human; conditions: 48 h; for growth percent: one dose 10 µM
# MOLT-4 (Leukemia) = experiment: NCI60 screen (SRB); format: cell-based, human; conditions: one dose 10 µM, 48 h
# SK-OV-3 (Ovarian Cancer) = experiment: NCI60 screen (SRB); format: cell-based, human; conditions: 48 h; for growth percent: one dose 10 µM
# UACC-257 (Melanoma) = experiment: NCI60 screen (SRB); format: cell-based, human; conditions: 48 h; for growth percent: one dose 10 µM
# [2] = tested on: MDA-MB-468 (Breast Cancer); experiment: NCI60 screen (SRB); format: cell-based, human; conditions: 48 h; for growth percent: one dose 10 µM
# [3] = tested on: A549/ATCC (Non-Small Cell Lung Cancer); experiment: NCI60 screen (SRB); format: cell-based, human; conditions: 48 h; for growth percent: one dose 10 µM
# [4] = tested on: EKVX (Non-Small Cell Lung Cancer); experiment: NCI60 screen (SRB); format: cell-based, human; conditions: 48 h; for growth percent: one dose 10 µM
# [5] = tested on: NCI/ADR-RES (Ovarian Cancer); experiment: NCI60 screen (SRB); format: cell-based, human; conditions: 48 h; for growth percent: one dose 10 µM
# SN12C (Renal Cancer) = experiment: NCI60 screen (SRB); format: cell-based, human; conditions: 48 h; for growth percent: one dose 10 µM
# COLO 205 (Colon Cancer) = experiment: NCI60 screen (SRB); format: cell-based, human; conditions: 48 h; for growth percent: one dose 10 µM
# [6] = tested on: NCI-H460 (Non-Small Cell Lung Cancer); experiment: NCI60 screen (SRB); format: cell-based, human; conditions: for growth percent: one dose 10 µM; for GI50: five-dose
# [7] = tested on: MCF-7 breast cancer cells; experiment: alamarBlue cell viability assay; format: cell-based; conditions: Homo sapiens, MCF7, MCF-7
# Method: Figure 5 Preliminary cell viability data for Series 1: (A) compounds 22a–22g and chalcone 20b and Series 2: (B) compounds 23a–e and chalcone 20b in MCF-7 breast cancer cells. Cell proliferation of MCF-7 cells was determined with an alamarBlue assay (seeding density 2.5 × 10^4 cells/mL per well for 96-well plates). Compound concentrations of either 1 or 0.1 μM for 72 h were used to treat the cells (in triplicate) with control wells containing vehicle ethanol (1% v/v). The mean value ± SEM for three independent experiments is shown. The positive controls used are CA-4 and phenstatin (1.0 μM and 0.1 μM). Statistical analysis was performed using One-way ANOVA with the Sidak multiple comparison test (***, p < 0.001).
# HL-60 cells were suspension cells and the seeding density for the viability assay was 25,000 cells/mL. MCF-7 cells (adherent) were cultured in Minimum Essential Media (MEM) with GlutaMAX™-I, supplemented with 1% (v/v) non-essential amino acids, 10% (v/v) fetal bovine serum (FBS), purchased from BD Biosciences (Edmund Halley Road, Oxford, UK), and 1% (v/v) penicillin/streptomycin 5000 U/mL. The MCF-7 cells used in the screening of the compounds during these experiments were mycoplasma-free. The seeding density of MCF-7 in the viability assay was 25,000 cells/mL and 50,000 cells/mL in the FACS assay. Normal breast cells (MCF-10A) (adherent) were cultured in Dulbecco’s Modified Eagle Medium: Nutrient Mixture F-12 (DMEM/F12; Gibco) supplemented with 5% horse serum (Invitrogen, Waltham, MA, USA), 20 ng/mL epidermal growth factor (Merck Millipore, Burlington, MA, USA), 0.5 μg/mL hydrocortisone (Sigma, Kanagawa, Japan), 100 ng/mL cholera toxin (Sigma), 10 μg/mL insulin (Sigma), and penicillin/streptomycin 5000 U/mL (1%) (Gibco, Waltham, MA, USA). […] MDA-MB-231 cells were cultured in Dulbecco’s Modified Eagle Medium, which was supplemented with 10% (v/v) fetal bovine serum (FBS) and 1% (v/v) penicillin/streptomycin 5000 U/mL. When not in use, all cells were kept in liquid nitrogen and frozen in a freezing media made of 90% FBS and 10% DMSO. All cells were grown in an atmosphere of 5% CO2/95% air in T75 culture flasks. The media was changed every 2–3 days and media was always prewarmed to 37 °C. All were sub-cultured every 3–4 days by trypsinization using TrypLE™ Express enzyme when confluence was reached to allow growth, prevent excessive cell death, and minimize the risk of infections derived by over-confluence. For the cell viability assay, the number of cells per milliliter was 25,000 cells/mL while the FACS assay utilized 50,000 cells/mL. Cells were maintained at 37 °C in 5% CO2 in a humidified incubator.
# The biochemical assays were performed in triplicate and on at least three independent occasions to facilitate the determination of mean values. For the viability assay, cells were grown until 80% confluent. Adherent cells such as MCF-7, MDA-MB-231, and MCF-10A were trypsinized to detach them from the flask, counted as previously described, and seeded in 96 well plates with a seeding density of 25,000 cells /mL (200 µL of suspension in each well so that the final number of cells per well was 5000) and 1 × 10^4 cells/well seeding density for suspension HL-60 cells. Adherent cells were incubated for 24 h after being seeded in the 96 well plate and treated on the following day, while suspension cells were treated on the same day of the seeding. In both cases, the incubation time after the treatment with the drug was 72 h. After 68 h incubation, the AlamarBlue was added (20 µL in each well) and the incubation time was completed. After 72 h, the change in color was measured by spectrofluorimetry at an excitation wavelength of 544 nm and emission wavelength of 590 nm. AlamarBlue is a cell viability indicator containing a compound called resazurin. AlamarBlue is water soluble, stable in culture media, non-toxic, and is permeable through the cell membrane. […]
# DU-145 (Prostate Cancer) = experiment: NCI60 screen (SRB); format: cell-based, human; conditions: 48 h; for growth percent: one dose 10 µM
# HCT-116 (Colon Cancer) = experiment: NCI60 screen (SRB); format: cell-based, human; conditions: 48 h; for growth percent: one dose 10 µM
# HL-60 (TB) (Leukemia) = experiment: NCI60 screen (SRB); format: cell-based, human; conditions: for growth percent: HL-60 (TB), one dose 10 µM; for GI50: HL-60(TB), five-dose
# [8] = Homo sapiens, five-dose, read-out: IC50 (cell marked * in GI50 column)
smiles,measurement,setting,value
"COc1cc(/C=C/C(/C=C/c2cc(OC)c(OC)c(OC)c2)n2ccnc2)cc(OC)c1OC [Compound 30, 1-((1E,4E)-1,5-bis(3,4,5-trimethoxyphenyl)penta-1,4-dien-3-yl)-1H-imidazole]",growth percent,HS 578T (Breast Cancer),77.21%
same,growth percent,T-47D (Breast Cancer),77.54%
same,growth percent,[1],84.81%
same,growth percent,SK-MEL-2 (Melanoma),81.02%
same,growth percent,MOLT-4 (Leukemia),74.07%
same,growth percent,SK-OV-3 (Ovarian Cancer),92.06%
same,growth percent,UACC-257 (Melanoma),75.61%
same,growth percent,[2],57.22%
same,growth percent,[3],78.93%
same,growth percent,[4],94.43%
same,growth percent,[5],89.35%
same,growth percent,SN12C (Renal Cancer),84.52%
same,growth percent,COLO 205 (Colon Cancer),99.42%
same,growth percent,[6]; 48 h,93.96%
same,viability at 1 µM,"[7]; 72 h, read-out: viable cells",77%
same,growth percent,DU-145 (Prostate Cancer),100.17%
same,growth percent,HCT-116 (Colon Cancer),78.18%
same,growth percent,HL-60 (TB) (Leukemia); 48 h,70.60%
"COc1ccc(/C=C/C(c2cc(OC)c(OC)c(OC)c2)n2cncn2)cc1O (centres unmarked) [Compound 22b, (E)-5-(3-(1H-1,2,4-Triazol-1-yl)-3-(3,4,5-trimethoxyphenyl)prop-1-en-1-yl)-2-methoxyphenol]",growth percent,HS 578T (Breast Cancer),28.47%
same,IC50,"HS 578T (Breast Cancer); Homo sapiens, Hs-578T, read-out: IC50 (cell marked * in GI50 column)",> 100 µM
same,GI50,"T-47D (Breast Cancer); Homo sapiens, T47D, five-dose",> 100 µM
same,growth percent,T-47D (Breast Cancer),34.38%
same,GI50,"[1]; Homo sapiens, five-dose",5.93 µM
same,growth percent,[1],62.21%
same,GI50,"SK-MEL-2 (Melanoma); Homo sapiens, five-dose",0.0438 µM
same,growth percent,SK-MEL-2 (Melanoma),18.23%
same,growth percent,MOLT-4 (Leukemia),21.84%
same,IC50,SK-OV-3 (Ovarian Cancer); [8],> 100 µM
same,growth percent,SK-OV-3 (Ovarian Cancer),12.67%
same,GI50,"UACC-257 (Melanoma); Homo sapiens, five-dose",> 100 µM
same,growth percent,UACC-257 (Melanoma),55.61%
same,IC50,[2]; [8],> 100 µM
same,growth percent,[2],8.27%
same,GI50,"[3]; Homo sapiens, five-dose",4.56 µM
same,growth percent,[3],40.13%
same,GI50,"[4]; Homo sapiens, five-dose",6.07 µM
same,growth percent,[4],59.45%
same,IC50,[5]; [8],5.25 µM
same,growth percent,[5],10.82%
same,GI50,"SN12C (Renal Cancer); Homo sapiens, five-dose",7.19 µM
same,growth percent,SN12C (Renal Cancer),49.61%
same,GI50,"COLO 205 (Colon Cancer); Homo sapiens, five-dose",3.66 µM
same,growth percent,COLO 205 (Colon Cancer),60.64%
same,GI50,"[6]; Homo sapiens, NCI-H460, 48 h",0.042 µM
same,GI50,[6]; 48 h,0.0423 µM
same,growth percent,[6]; 48 h,13.26%
same,IC50,[7],0.39 µM
same,viability at 0.5 µM,"[7]; 0.5 μM, 72 h, Figure 9C",70%
same,viability at 1 µM,"[7]; 72 h, Figure 9C, read-out: cell viability",30%
same,viability at 1 µM,"[7]; 72 h, read-out: viable cells",40%
same,viability at 10 µM,"[7]; 10 μM, 72 h, Figure 9C",20%
same,IC50,[7]; 72 h,0.385 ± 0.12 µM
same,IC50,"DU-145 (Prostate Cancer); Homo sapiens, five-dose, read-out: IC50 (cell marked * in GI50 column) (converted)",6.61 µM
same,growth percent,DU-145 (Prostate Cancer),21.00%
same,GI50,"HCT-116 (Colon Cancer); Homo sapiens, five-dose",0.041 µM
same,growth percent,HCT-116 (Colon Cancer),10.52%
same,GI50,HL-60 (TB) (Leukemia); 48 h,0.0245 µM
same,growth percent,HL-60 (TB) (Leukemia); 48 h,−36.28%
same,GI50,"HL-60 (TB) (Leukemia); Homo sapiens, HL-60, 48 h",0.024 µM
"COc1ccc(/C=C/C(c2cc(OC)c(OC)c(OC)c2)n2cncn2)cc1 (centres unmarked) [Compound 22a, (E)-1-(3-(4-Methoxyphenyl)-1-(3,4,5-trimethoxyphenyl)allyl)-1H-1,2,4-triazole]",growth percent,HS 578T (Breast Cancer),51.18%
same,growth percent,T-47D (Breast Cancer),30.79%
same,growth percent,[1],75.97%
same,growth percent,SK-MEL-2 (Melanoma),12.89%
same,growth percent,MOLT-4 (Leukemia),39.43%
same,growth percent,SK-OV-3 (Ovarian Cancer),35.55%
same,growth percent,UACC-257 (Melanoma),46.44%
same,growth percent,[2],40.88%
same,growth percent,[3],35.48%
same,growth percent,[4],66.04%
same,growth percent,[5],36.28%
same,growth percent,SN12C (Renal Cancer),62.02%
same,growth percent,COLO 205 (Colon Cancer),30.72%
same,growth percent,[6]; 48 h,22.14%
same,viability at 1 µM,"[7]; 72 h, read-out: viable cells",60%
same,growth percent,DU-145 (Prostate Cancer),61.25%
same,growth percent,HCT-116 (Colon Cancer),21.99%
same,growth percent,HL-60 (TB) (Leukemia); 48 h,−17.94%
"COc1ccc(/C=C/C(c2cc(OC)c(OC)c(OC)c2)n2ccnc2)cc1O (centres unmarked) [Compound 23b, (E)-5-(3-(1H-Imidazol-1-yl)-3-(3,4,5-trimethoxyphenyl)prop-1-en-1-yl)-2-methoxyphenol]",growth percent,HS 578T (Breast Cancer),32.05%
same,growth percent,T-47D (Breast Cancer),40.62%
same,growth percent,[1],88.36%
same,growth percent,SK-MEL-2 (Melanoma),41.65%
same,growth percent,MOLT-4 (Leukemia),31.88%
same,growth percent,SK-OV-3 (Ovarian Cancer),33.54%
same,growth percent,UACC-257 (Melanoma),34.19%
same,growth percent,[2],40.60%
same,growth percent,[3],29.07%
same,growth percent,[4],81.22%
same,growth percent,[5],45.70%
same,growth percent,SN12C (Renal Cancer),57.15%
same,growth percent,COLO 205 (Colon Cancer),89.81%
same,growth percent,[6]; 48 h,16.55%
same,viability at 0.1 µM,"[7]; 0.1 μM, 72 h, read-out: viable cells",75%
same,viability at 1 µM,"[7]; 72 h, read-out: viable cells",74%
same,growth percent,DU-145 (Prostate Cancer),37.76%
same,growth percent,HCT-116 (Colon Cancer),16.67%
same,growth percent,HL-60 (TB) (Leukemia); 48 h,−36.59%
"COc1ccc(C2CC(n3ccnc3)c3cc(OC)c(OC)c(OC)c32)cc1O (centres unmarked) [Compound 27a, 5-(3-(1H-Imidazol-1-yl)-5,6,7-trimethoxy-2,3-dihydro-1H-inden-1-yl)-2-methoxyphenol]",growth percent,HS 578T (Breast Cancer),85.38%
same,growth percent,T-47D (Breast Cancer),94.34%
same,growth percent,[1],97.37%
same,growth percent,SK-MEL-2 (Melanoma),89.63%
same,growth percent,MOLT-4 (Leukemia),90.04%
same,growth percent,SK-OV-3 (Ovarian Cancer),86.31%
same,growth percent,UACC-257 (Melanoma),58.46%
same,growth percent,[2],78.64%
same,growth percent,[3],55.83%
same,growth percent,[4],100.83%
same,growth percent,[5],93.87%
same,growth percent,SN12C (Renal Cancer),104.36%
same,growth percent,COLO 205 (Colon Cancer),106.99%
same,growth percent,[6]; 48 h,78.74%
same,growth percent,DU-145 (Prostate Cancer),102.37%
same,growth percent,HCT-116 (Colon Cancer),81.13%
same,growth percent,HL-60 (TB) (Leukemia); 48 h,83.57%
